One data set relates to VCaP cells. The data set is described as follows: Assay on inhibitory activity for VCaP cell proliferation (CCK-8). Type of data set: cell-based. Conditions: 168 h incubation. Summed up:
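VCaP cells seeded at 1×10^5 cells/mL in phenol red-free DMEM with 5% charcoal-stripped FBS, treated in duplicate at 10000–0.61 nM final. After 168 h incubation, viability was read with CCK-8.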

A further data set addresses T1, AR in VCaP cells (Homo sapiens, UniProt P10275).
T1 construct: Assay on Degradation Activity for AR in VCaP Cells; endogenous in cells; host or cells: VCaP cells
T1 sequence (P10275 1-920): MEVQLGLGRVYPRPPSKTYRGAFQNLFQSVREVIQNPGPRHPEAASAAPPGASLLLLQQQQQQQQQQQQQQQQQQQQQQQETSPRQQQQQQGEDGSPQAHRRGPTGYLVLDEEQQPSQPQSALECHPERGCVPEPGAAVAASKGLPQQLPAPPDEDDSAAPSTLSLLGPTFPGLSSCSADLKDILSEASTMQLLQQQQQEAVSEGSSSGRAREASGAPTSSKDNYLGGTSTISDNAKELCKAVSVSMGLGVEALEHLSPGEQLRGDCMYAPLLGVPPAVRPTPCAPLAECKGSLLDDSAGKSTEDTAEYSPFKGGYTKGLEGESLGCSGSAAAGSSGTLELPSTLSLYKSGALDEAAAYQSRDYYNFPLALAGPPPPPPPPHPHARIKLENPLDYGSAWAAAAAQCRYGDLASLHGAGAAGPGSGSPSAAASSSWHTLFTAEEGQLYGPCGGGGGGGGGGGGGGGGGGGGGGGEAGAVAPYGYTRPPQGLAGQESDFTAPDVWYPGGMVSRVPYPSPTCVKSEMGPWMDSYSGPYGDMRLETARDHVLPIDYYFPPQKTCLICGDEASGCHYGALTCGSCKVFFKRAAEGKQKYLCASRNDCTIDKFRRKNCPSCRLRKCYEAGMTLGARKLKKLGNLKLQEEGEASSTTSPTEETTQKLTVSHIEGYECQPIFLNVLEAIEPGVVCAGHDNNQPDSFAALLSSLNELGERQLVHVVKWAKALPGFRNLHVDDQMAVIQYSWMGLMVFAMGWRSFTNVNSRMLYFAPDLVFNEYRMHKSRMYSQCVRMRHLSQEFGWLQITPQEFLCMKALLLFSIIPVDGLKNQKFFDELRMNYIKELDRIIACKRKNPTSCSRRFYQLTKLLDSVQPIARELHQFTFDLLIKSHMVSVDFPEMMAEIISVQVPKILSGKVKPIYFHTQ
The experiment in a line: Assay on degradation activity for AR in VCaP cells (HTRF human androgen receptor detection kit). It counts as cell-based. The conditions noted are these: 24 h incubation. The method, boiled down: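 VCaP cells seeded overnight in 2% CSS-FBS phenol red-free DMEM, then treated 24 h with compound at 1000 nM–0.977 nM final, in duplicate. Lysates probed with AR Eu cryptate/d2 antibody HTRF (2 h, 25° C., 665/620 nm); DC50 and Dmax from four-parameter dose-response fits.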

The nature of data set [1]: In vitro stability in liver microsome. It counts as in vitro ADME. The conditions noted are these: human liver microsome 0.5 mg/mL, NADPH, 37° C. The procedure:
Liver microsome incubation samples (species: human, monkey, rat, and mouse) were prepared by mixing a PBS buffer (pH=7.4), a liver microsome solution (0.5 mg/mL), a test compound, and an NADPH+MgCl2 solution and incubated at 37° C. and 300 rpm for 1 h. Zero-hour samples were prepared by mixing a PBS buffer (pH=7.4), a liver microsome solution (0.5 mg/mL), and a test compound. An acetonitrile solution containing an internal standard was added to the samples, and supernatants were prepared by protein precipitation, diluted, and then assayed by LC/MS/MS.
(Liver microsomes are vesicles of endoplasmic reticulum, rich in cytochrome P450 enzymes.)

The test system of another data set is LNCaP cells. The data set is described as follows: Assay on inhibitory activity for LNCaP cell proliferation (CCK-8). It counts as cell-based. The conditions noted are these: 168 h incubation. The method, boiled down: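 Cells seeded at 1×10^5 cells/mL in phenol red-free 1640 with 2% CSS-FBS, treated at final 10000 nM-0.61 nM in duplicate. After 168 h incubation, viability read with CCK-8.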

The nature of a further data set: Mouse pharmacokinetics. It counts as in vivo, ICR mice. The procedure: ICR mice weighing 18-22 g were randomized into groups of 9 after 3-5 days of acclimatization, and then intragastrically given the test compound solution at a dose of 10 mg/kg and intravenously injected with the test compound solution at a dose of 1 mg/kg.
Blood sampling time points for the intragastrical administration group were 15 min, 0.5 h, 1 h, 2 h, 3 h, 4 h, 6 h, 8 h, 10 h, and 24 h, and blood sampling time points for the intravenous injection administration group were […], 15 min, 0.5 h, 1 h, 2 h, 4 h, 6 h, 8 h, 10 h, and 24 h; blood was collected from the orbit to prepare plasma samples to be tested. 30 μL of each of the plasma samples to be tested and a standard curve sample were taken, and an acetonitrile solution containing an internal standard was added. Supernatants were obtained by protein precipitation, diluted, and then assayed by LC/MS/MS. Pharmacokinetic parameters were fitted using a non-compartmental model (see Table 6).

The target in another data set is T2, AR in LNCaP cells (Homo sapiens, UniProt P10275, T878A).
T2 construct: Assay on Degradation Activity for AR in LNCaP Cells; endogenous in cells; host or cells: LNCaP cells
T2 sequence (P10275 1-920 T878A): T1 sequence (P10275 1-920) with T878A
The experiment in a line: Assay on degradation activity for AR in LNCaP cells (HTRF human androgen receptor detection kit). It counts as cell-based. Conditions: 24 h incubation. Summed up:
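LNCaP cells seeded in 2% CSS-FBS phenol red-free 1640 medium overnight, then treated in duplicate with 500 nM–0.488 nM compound for 24 h. AR in lysates quantified by HTRF (Eu cryptate/d2 antibodies, 2 h, 25 °C, 665/620 nm); DC50 and Dmax from four-parameter fits.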
A general note: In TR-FRET formats the signal depends on donor and acceptor labels being close together.

Where [2] appears, read: ICR, mouse, plasma, iv, 1 mg/kg, Mouse i.v. 1 mpk.
[3] abbreviates: ICR, mouse, plasma, iv, 1 mg/kg, Mouse i.v. 1 mpk, read-out: AUC.
The mark [4] stands for this setting: ICR, mouse, plasma, po, 10 mg/kg, Mouse i.g. 10 mpk vs i.v. 1 mpk.
Where [5] appears, read: ICR, mouse, plasma, po, 10 mg/kg, Mouse i.g. 10 mpk, read-out: AUC.
[6] abbreviates: ICR, mouse, plasma, po, 10 mg/kg, Mouse i.g. 10 mpk, read-out: Cmax.

Changes are numbered by the printed parent chain. Read-outs that look alike come from different tables or passages of the source.

As usually defined, the IC50 is the concentration needed to halve the response being measured. A lower IC50 goes with higher potency. The term DC50 denotes the concentration at which degradation of the target reaches its halfway point. Read a low DC50 as a more potent degrader. In general, clearance refers to the volume of plasma or blood freed of the substance per unit of time. The half-life is how long it takes for the measured level to halve. Low values mean rapid decline, high ones slow decline. Usually AUC stands for the area under the concentration-time curve, a measure of exposure. In general, bioavailability refers to the share of a dose that reaches the circulation, judged against a reference dose that is usually intravenous. Read a high bioavailability as good availability. Broadly, the Cmax is the maximum level reached in the sampled fluid or tissue. Consider `N#Cc1ccc(O[C@H]2CC[C@H](NC(=O)c3ccc(N4CCC(CN5Cc6ccc7c(C8CCC(=O)NC8=O)noc7c6C5)CC4)nn3)CC2)cc1Cl` (some centres unmarked) [Compound 17], for which the IC50 in the data set on VCaP cells (Homo sapiens, VCaP, 168 h) is less than 1000 nM; in the data set on LNCaP cells (Homo sapiens) it was less than 1000 nM. Besides, the DC50 on AR in VCaP cells was not above 1 nM. Also, the “Human liver microsome Residuals at 60 min (%)” value in data set [1] is on record as more than 85%. The same compound showed a clearance in the data set “Mouse pharmacokinetics” (setting [2]) of 4.72 mL/min/kg. Further, the half-life in the data set “Mouse pharmacokinetics” (setting [2]) is 7.28 h; in “Mouse pharmacokinetics” (ICR, mouse, plasma, po, 10 mg/kg, Mouse i.g. 10 mpk), 6.82 h. The AUC amounted to 3160 ng·h/mL in “Mouse pharmacokinetics” (setting [3]) and 14600 ng·h/mL in the data set “Mouse pharmacokinetics” (setting [5]). The bioavailability in the data set “Mouse pharmacokinetics” (setting [4]) came to 46%. Moreover, the Cmax in “Mouse pharmacokinetics” (setting [6]) was found to be 1160 ng/mL.
For `N#Cc1ccc(O[C@H]2CC[C@H](NC(=O)c3ccc(N4CCN(CC5Cc6ccc7c(C8CCC(=O)NC8=O)noc7c6C5)CC4)nn3)CC2)cc1Cl` (some centres unmarked) [Compound 26], the IC50 in the data set with VCaP cells (Homo sapiens, VCaP, 168 h) is less than 100 nM; in the data set on LNCaP cells (Homo sapiens) it was less than 1000 nM. In addition, the DC50 on AR in VCaP cells is not above 1 nM. Further, in data set [1], the “Human liver microsome Residuals at 60 min (%)” value is reported as more than 85%. The same compound gave a clearance in the data set “Mouse pharmacokinetics” (setting [2]) of 2.78 mL/min/kg. The half-life in “Mouse pharmacokinetics” (setting [2]) is 7.58 h. Also, the values for the AUC in the data set “Mouse pharmacokinetics” (setting [3]) and in the data set “Mouse pharmacokinetics” (setting [5]) were 5350 ng·h/mL and 13200 ng·h/mL, respectively. The compound further came in with a bioavailability in “Mouse pharmacokinetics” (setting [4]) of 24.8%. Further, the Cmax in “Mouse pharmacokinetics” (setting [6]) worked out at 886 ng/mL. For the same compound, the “t1/2” value in the data set “Mouse pharmacokinetics” (Mouse i.g. 10 mpk) is given as 11 h.
Consider `N#Cc1ccc(O[C@H]2CC[C@H](NC(=O)c3ccc(N4CCN(CC5Cc6ccc7c(C8CCC(=O)NC8=O)noc7c6C5)CC4)nn3)CC2)cc1Cl` (some centres unmarked) [Compound 27], for which the IC50 in the data set with VCaP cells is less than 100 nM. The DC50 at AR in VCaP cells is not above 1 nM. For the same compound, the “Human liver microsome Residuals at 60 min (%)” value in data set [1] was more than 85%. Moreover, in the data set with LNCaP cells, the IC50 was less than 1000 nM. Further, in the data set “Mouse pharmacokinetics” (Mouse i.g. 10 mpk), the area under the curve (AUC) stood at 20072 ng·h/mL, the “Cmax” value worked out at 1503 ng/mL and the “t1/2” value turned out to be 5.47 h. In the data set “Mouse pharmacokinetics” (Mouse i.g. 10 mpk vs i.v. 1 mpk), the “F(%)” value is recorded as 35.85%. Besides, in “Mouse pharmacokinetics” (Mouse i.v. 1 mpk, 1 mg/kg), the “AUC” value came to 5599 ng·h/mL, the “Cl” value stood at 2.63 mL/min/kg and the “t1/2” value is 7.6 h.
One may read the Dmax as the greatest extent of degradation seen. A lower Dmax goes with a partial loss of target. The compound `N#Cc1ccc(O[C@H]2CC[C@H](NC(=O)c3ccc(N4CCC(N5CC(CN6Cc7ccc8c(C9CCC(=O)NC9=O)noc8c7C6)C5)CC4)nn3)CC2)cc1Cl` (some centres unmarked) [Compound 90] gave an IC50 in the data set with VCaP cells (Homo sapiens) of less than 10 nM. For the same compound, the DC50 at AR in VCaP cells was not above 1 nM; on AR in LNCaP cells (HTRF), not above 20 nM. Moreover, the “Human liver microsome Residuals at 60 min (%)” value in data set [1] is on record as more than 85%. Moreover, the Dmax on AR in LNCaP cells (maximum degradation rate) was more than 80%.

These data come from patent publication US20260035384A1, “COMPOUND CONTAINING CYCLOHEXYL” (CHIA TAI TIANQING PHARMACEUTICAL GROUP CO., LTD., priority 2022, published 2026).
